Data published in ChEMBL document CHEMBL1221260, “Discovery of cannabinoid-1 receptor antagonists by virtual screening” (Bioorg Med Chem Lett, 2010).
One block for each molecule: values may come before it.

How the values were obtained:
[1] = Plasma protein binding in rat; assay type: ADME, cell-free; conditions: read-out: PPB (converted)
Liver microsomes [2] = assay: Metabolic stability in human liver microsomes; assay type: ADME, Microsome
Homo sapiens [3] = species on record: Homo sapiens; assay: Plasma protein binding in human; conditions: read-out: PPB (converted)
[4] = Stability in rat plasma for 30 mins; assay type: ADME, cell-free; conditions: read-out: Stability
Homo sapiens [5] = species on record: Homo sapiens; assay: Stability in human plasma for 30 mins
Cannabinoid receptor 1 = Cannabinoid receptor 1 (Homo sapiens, UniProt P21554); assay: Inhibition of human CB1 receptor expressed in CHOK1 cells by luciferase reporter gene assay; assay type: cell-based, CHO-K1; conditions: for inhibition: CHO-K1, concentration not given here
Liver microsomes [6] = assay: Metabolic stability in rat liver microsomes; assay type: ADME, Microsome

Chain of Cannabinoid receptor 1 (P21554 whole entry): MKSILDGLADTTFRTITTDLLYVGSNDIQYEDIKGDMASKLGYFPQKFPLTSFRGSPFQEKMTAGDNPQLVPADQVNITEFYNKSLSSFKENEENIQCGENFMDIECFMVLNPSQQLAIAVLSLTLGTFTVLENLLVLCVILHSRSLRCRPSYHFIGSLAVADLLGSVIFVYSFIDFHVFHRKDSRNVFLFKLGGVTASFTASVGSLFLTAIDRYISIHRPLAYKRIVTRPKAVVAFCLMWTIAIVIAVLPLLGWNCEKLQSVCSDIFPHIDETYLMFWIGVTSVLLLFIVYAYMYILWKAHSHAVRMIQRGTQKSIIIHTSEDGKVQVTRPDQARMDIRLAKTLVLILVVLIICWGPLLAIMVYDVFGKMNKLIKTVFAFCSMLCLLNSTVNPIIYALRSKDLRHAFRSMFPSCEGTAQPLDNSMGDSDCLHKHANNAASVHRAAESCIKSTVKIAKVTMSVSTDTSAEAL

- fraction unbound [1]: 0.034
- Stability (Liver microsomes [2]): 87%
- fraction unbound (Homo sapiens [3]): 0.058
- remaining at 0.5 h [4]: > 99%
- remaining at 0.5 h (Homo sapiens [5]): > 99%
- IC50 (Cannabinoid receptor 1): 0.125 µM
- Stability (Liver microsomes [6]): 96.1%
Structure (SMILES): O=C1N=C(Nc2cccc(C(F)(F)F)c2)S/C1=C\c1cccnc1

- inhibition (Cannabinoid receptor 1): 94%
Structure (SMILES): CCOC(=O)c1c(NC(=O)Cc2ccccc2)sc2c1CCN(C(=O)OCC)C2

- inhibition (Cannabinoid receptor 1): 83%
Structure (SMILES): COC(=O)c1ccc([C@@H]2CC(=O)N3C(=C2C#N)SC[C@]3(O)c2ccc(C)cc2)cc1

- inhibition (Cannabinoid receptor 1): 90%
Structure (SMILES): Cc1ccc(-n2nc3c(c2NC(=O)c2ccco2)CS(=O)(=O)C3)c(C)c1

- inhibition (Cannabinoid receptor 1): 102%
Structure (SMILES): COC(=O)c1cc(S(=O)(=O)N2CCn3c2nc2ccccc23)c[nH]1

- IC50 (Cannabinoid receptor 1): 0.29 µM
Structure (SMILES): C=C(C)Cn1c(SCC(=O)OC)nc2sc3c(c2c1=O)CC(C)(C)OC3

- inhibition (Cannabinoid receptor 1): 63%
Structure (SMILES): O=C(NC[C@@H]1CCCO1)c1nc(-c2ccc(Cl)cc2)n2c1CCCCC2
